Measured values taken from BindingDB's records for doi:10.1021/acschembio.7b00653 (University of Konstanz, 2017).
pIC50: −log10 of the molar value.

biological target: T1, AP-4-A phosphorylase (Mycobacterium tuberculosis (strain ATCC 25618 / H37Rv), UniProt P9WMK9); assay: FRET assay; details: pH 8
T1 sequence (P9WMK9 whole entry): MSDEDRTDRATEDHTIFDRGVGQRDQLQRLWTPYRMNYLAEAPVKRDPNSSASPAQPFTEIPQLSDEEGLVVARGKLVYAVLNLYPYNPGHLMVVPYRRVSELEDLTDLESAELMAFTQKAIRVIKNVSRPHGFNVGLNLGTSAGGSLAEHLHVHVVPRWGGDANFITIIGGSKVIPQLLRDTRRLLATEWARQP
Protocol: Dose response curves against Rv2613c with 1 as the substrate for derivatives 5 and 18. 8 nM of Rv2613c were preincubated in buffer (20 mM Tris-HCl (pH 8.0), 50 mM NaCl, 1 mM DTT, 0.2 mg/mL BSA, 5 mM NaH2PO4, 5 mM MgCl2) with indicated amounts of compound solved in DMSO at 25°C for 30 min. Substrate 1 (2 µM in Tris-HCl buffer pH 8.0) was added Measurement of the fluorescence at 570 nm was conducted every 3 min over 1 h. Turnover of probe 1 was calculated by normalization to the intensity of controls. The rate of probe 1 turnover was obtained by linear fitting of probe 1 turnover over time. % Inhibition was calculated relative to the controls. The IC50 was calculated by a non-linear curve fit/dose response curve in Origin.

Structure (SMILES)	pIC50
CS/C(Nc1cccc(C(F)(F)F)c1)=C(/C#N)S(=O)(=O)c1ccc(Cl)cc1 [Synthesized Sulfanylacrylonitril Derivatives 2]	6.59
CS/C(Nc1ccccc1)=C(/C#N)S(=O)(=O)c1ccccc1 [Synthesized Sulfanylacrylonitril Derivatives 3]	< 4.52
CS/C(Nc1ccccc1)=C(/C#N)S(=O)(=O)c1ccc(Cl)cc1 [Synthesized Sulfanylacrylonitril Derivatives 4]	< 4.00
CS/C(Nc1cccc(C(F)(F)F)c1)=C(/C#N)S(=O)(=O)c1ccccc1 [Synthesized Sulfanylacrylonitril Derivatives 5]	6.92
CS/C(Nc1ccccc1C(F)(F)F)=C(/C#N)S(=O)(=O)c1ccccc1 [Synthesized Sulfanylacrylonitril Derivatives 6]	< 4.00
CS/C(Nc1ccc(C(F)(F)F)cc1)=C(/C#N)S(=O)(=O)c1ccccc1 [Synthesized Sulfanylacrylonitril Derivatives 7]	4.79
CS/C(Nc1cc(C(F)(F)F)cc(C(F)(F)F)c1)=C(/C#N)S(=O)(=O)c1ccccc1 [Synthesized Sulfanylacrylonitril Derivatives 8]	< 4.00
CCCS/C(Nc1cccc(C(F)(F)F)c1)=C(/C#N)S(=O)(=O)c1ccccc1 [Synthesized Sulfanylacrylonitril Derivatives 10]	6.33
CC(C)S/C(Nc1cccc(C(F)(F)F)c1)=C(/C#N)S(=O)(=O)c1ccccc1 [Synthesized Sulfanylacrylonitril Derivatives 11]	6.03
N#C/C(=C(\Nc1cccc(C(F)(F)F)c1)SCc1ccccc1)S(=O)(=O)c1ccccc1 [Synthesized Sulfanylacrylonitril Derivatives 12]	6.10
CS/C(Nc1cccc(C)c1)=C(/C#N)S(=O)(=O)c1ccccc1 [Synthesized Sulfanylacrylonitril Derivatives 14]	5.34
CS/C(Nc1cccc([N+](=O)[O-])c1)=C(/C#N)S(=O)(=O)c1ccccc1 [Synthesized Sulfanylacrylonitril Derivatives 15]	5.89
CS/C(Nc1cccc(C#N)c1)=C(/C#N)S(=O)(=O)c1ccccc1 [Synthesized Sulfanylacrylonitril Derivatives 16]	5.60
COC(=O)c1cccc(N/C(SC)=C(\C#N)S(=O)(=O)c2ccccc2)c1 [Synthesized Sulfanylacrylonitril Derivatives 17]	4.66
CCc1cccc(N/C(SC)=C(\C#N)S(=O)(=O)c2ccccc2)c1 [Synthesized Sulfanylacrylonitril Derivatives 18]	6.24
CCCc1cccc(N/C(SC)=C(\C#N)S(=O)(=O)c2ccccc2)c1 [Synthesized Sulfanylacrylonitril Derivatives 19]	6.02
CS/C(Nc1cccc(C(C)C)c1)=C(/C#N)S(=O)(=O)c1ccccc1 [Synthesized Sulfanylacrylonitril Derivatives 20]	5.75
COc1cccc(N/C(SC)=C(\C#N)S(=O)(=O)c2ccccc2)c1 [Synthesized Sulfanylacrylonitril Derivatives 21]	4.95
CS/C(Nc1cc(C)cc(C)c1)=C(/C#N)S(=O)(=O)c1ccccc1 [Synthesized Sulfanylacrylonitril Derivatives 22]	< 4.00
